Experimental data: US20110251173A1, “CHEMICAL COMPOUNDS” (AstraZeneca AB, priority 2010, published 2011)

biological target: T1, human DGAT1 (Homo sapiens, UniProt O75907); test: Human Enzyme Assay (DGAT1 inhibition, 14C oleoyl CoA incorporation into triolein); assay type: biochemical; details: human DGAT1 expressed in sf9 insect cell membranes; Examples 5 to 24; rounded to 2 decimal places
T1 construct: made in house; host or cells: Sf9 insect cells (baculovirus), membrane fraction
T1 sequence (O75907 1-488): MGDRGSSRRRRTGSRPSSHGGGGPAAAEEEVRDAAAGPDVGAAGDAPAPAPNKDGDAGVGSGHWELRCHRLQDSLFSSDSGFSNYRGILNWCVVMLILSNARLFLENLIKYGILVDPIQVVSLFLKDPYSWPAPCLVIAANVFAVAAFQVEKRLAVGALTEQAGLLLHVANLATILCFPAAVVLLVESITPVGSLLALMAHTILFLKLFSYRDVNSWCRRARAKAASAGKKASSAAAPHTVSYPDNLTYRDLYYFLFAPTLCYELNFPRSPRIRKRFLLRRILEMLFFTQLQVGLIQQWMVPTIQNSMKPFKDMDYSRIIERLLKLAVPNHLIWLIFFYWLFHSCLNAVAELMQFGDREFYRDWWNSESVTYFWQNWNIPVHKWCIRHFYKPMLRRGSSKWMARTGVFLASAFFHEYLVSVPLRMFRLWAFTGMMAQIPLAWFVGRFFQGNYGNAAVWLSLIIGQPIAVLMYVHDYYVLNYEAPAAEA
Description: Briefly, sf9 cells were infected with recombinant baculovirus containing human DGAT1 coding sequences and harvested after 48 h. Cells were lysed by sonication and membranes isolated by centrifuging at 28000 rpm for 1 h at 4° C. on a 41% sucrose gradient. The membrane fraction at the interphase was collected, washed, and stored in liquid nitrogen.
The reaction was started by adding ^14C oleoyl coenzyme A (30 μM final concentration) and incubated at room temperature for 30 minutes. The reaction was stopped by adding 200 μl 2-propanol:heptane 7:1. Radioactive triolein product was separated into the organic phase by adding 300 μl heptane and 100 μl 0.1 M carbonate buffer pH 9.5. DGAT1 activity was quantified by counting aliquots of the upper heptane layer by liquid scintillography.

| IC50 | Structure (SMILES) |
| --- | --- |
| 400 nM | Cc1c(Cl)cccc1-c1ccc(N2CCOc3ncnc(N)c3C2=O)cc1 [Example 6, 4-amino-6-(3′-chloro-2′-methylbiphenyl-4-yl)-7,8-dihydropyrimido[5,4-f][1,4]oxazepin-5(6H)-one] |
| 80 nM | Cc1cc(Cl)ccc1-c1ccc(N2CCOc3ncnc(N)c3C2=O)cc1 [Example 7, 4-amino-6-(4′-chloro-2′-methylbiphenyl-4-yl)-7,8-dihydropyrimido[5,4-f][1,4]oxazepin-5(6H)-one] |
| 70 nM | Cc1ccc(Cl)cc1-c1ccc(N2CCOc3ncnc(N)c3C2=O)cc1 [Example 8, 4-amino-6-(5′-chloro-2′-methylbiphenyl-4-yl)-7,8-dihydropyrimido[5,4-f][1,4]oxazepin-5(6H)-one] |
| 100 nM | N#Cc1ccc(Cl)cc1-c1ccc(N2CCOc3ncnc(N)c3C2=O)cc1 [Example 14, 4′-(4-amino-5-oxo-7,8-dihydropyrimido[5,4-f][1,4]oxazepin-6(5H)-yl)-5-chlorobiphenyl-2-carbonitrile] |
| 240 nM | N#Cc1c(Cl)cccc1-c1ccc(N2CCOc3ncnc(N)c3C2=O)cc1 [Example 15, 4′-(4-amino-5-oxo-7,8-dihydropyrimido[5,4-f][1,4]oxazepin-6(5H)-yl)-3-chlorobiphenyl-2-carbonitrile] |
| 40 nM | Nc1ncnc2c1C(=O)N(c1ccc(-c3ccc(S(N)(=O)=O)cc3Cl)cc1)CCO2 [Example 18, 4′-(4-Amino-5-oxo-7,8-dihydropyrimido[5,4-f][1,4]oxazepin-6(5H)-yl)-2-chlorobiphenyl-4-sulfonamide] |
| 50 nM | N#Cc1cc(Cl)ccc1-c1ccc(N2CCOc3ncnc(N)c3C2=O)cc1 [Example 22, 4′-(4-Amino-5-oxo-7,8-dihydropyrimido[5,4-f][1,4]oxazepin-6(5H)-yl)-4-chlorobiphenyl-2-carbonitrile] |

same assay, conditions: human DGAT1 expressed in sf9 insect cell membranes; Examples 25 to 59; rounded to 2 decimal places

| IC50 | Structure (SMILES) |
| --- | --- |
| 100 nM | Cc1nc(N)c2c(n1)OCCN(c1ccc(-c3ccc(CNS(C)(=O)=O)cc3Cl)cc1)C2=O [Example 43, N-((4′-(4-amino-2-methyl-5-oxo-7,8-dihydropyrimido[5,4-f][1,4]oxazepin-6(5H)-yl)-2-chlorobiphenyl-4-yl)methyl)methanesulfonamide] |
| 20 nM | C[C@@H]1CN(c2ccc(-c3ccccc3Cl)cc2)C(=O)c2c(N)ncnc2O1 [Example 44, (R)-4-Amino-6-(2′-chlorobiphenyl-4-yl)-8-methyl-7,8-dihydropyrimido[5,4-f][1,4]oxazepin-5(6H)-one] |
| 60 nM | C[C@@H]1CN(c2ccc(-c3ccc(CNS(C)(=O)=O)cc3Cl)cc2)C(=O)c2c(N)ncnc2O1 [Example 45, (R)—N-((4′-(4-amino-8-methyl-5-oxo-7,8-dihydropyrimido[5,4-f][1,4]oxazepin-6(5H)-yl)-2-chlorobiphenyl-4-yl)methyl)methanesulfonamide] |
| 20 nM | C[C@@H]1CN(c2ccc(-c3ccccc3F)cc2)C(=O)c2c(N)ncnc2O1 [Example 46, (R)-4-amino-6-(2′-fluorobiphenyl-4-yl)-8-methyl-7,8-dihydropyrimido[5,4-f][1,4]oxazepin-5(6H)-one] |
| 50 nM | C[C@@H]1CN(c2ccc(-c3ccc(CN(C)S(C)(=O)=O)cc3Cl)cc2)C(=O)c2c(N)ncnc2O1 [Example 47, (R)—N-((4′-(4-amino-8-methyl-5-oxo-7,8-dihydropyrimido[5,4-f][1,4]oxazepin-6(5H)-yl)-2-chlorobiphenyl-4-yl)methyl)-N-methylmethanesulfonamide] |
| 60 nM | C[C@@H]1CN(c2ccc(-c3ccc(CS(C)(=O)=O)cc3Cl)cc2)C(=O)c2c(N)ncnc2O1 [Example 48, (R)-4-Amino-6-(2′-chloro-4′-(methylsulfonylmethyl)biphenyl-4-yl)-8-methyl-7,8-dihydropyrimido[5,4-f][1,4]oxazepin-5(6H)-one] |
| 20 nM | C[C@@H]1CN(c2ccc(-c3c(F)cccc3F)cc2)C(=O)c2c(N)ncnc2O1 [Example 49, (R)-4-amino-6-(2′,6′-difluorobiphenyl-4-yl)-8-methyl-7,8-dihydropyrimido[5,4-f][1,4]oxazepin-5(6H)-one] |
| 40 nM | C[C@@H]1CN(c2ccc(-c3ccc(Cl)cc3C#N)c(F)c2)C(=O)c2c(N)ncnc2O1 [Example 50, (R)-4′-(4-Amino-8-methyl-5-oxo-7,8-dihydropyrimido[5,4-f][1,4]oxazepin-6(5H)-yl)-4-chloro-2′-fluorobiphenyl-2-carbonitrile] |
| 20 nM | C[C@@H]1CN(c2ccc(-c3ccc(C#N)cc3Cl)c(F)c2)C(=O)c2c(N)ncnc2O1 [Example 51, (R)-4′-(4-Amino-8-methyl-5-oxo-7,8-dihydropyrimido[5,4-f][1,4]oxazepin-6(5H)-yl)-2-chloro-2′-fluorobiphenyl-4-carbonitrile] |
| 70 nM | C[C@@H]1CN(c2ccc(-c3c(Cl)cccc3C#N)c(F)c2)C(=O)c2c(N)ncnc2O1 [Example 52, 4′-((R)-4-Amino-8-methyl-5-oxo-7,8-dihydropyrimido[5,4-f][1,4]oxazepin-6(5H)-yl)-6-chloro-2′-fluorobiphenyl-2-carbonitrile] |
| 20 nM | C[C@@H]1CN(c2ccc(-c3ccc(F)cc3F)c(F)c2)C(=O)c2c(N)ncnc2O1 [Example 53, (R)-4-Amino-8-methyl-6-(2,2′,4′-trifluorobiphenyl-4-yl)-7,8-dihydropyrimido[5,4-f][1,4]oxazepin-5(6H)-one] |
| 20 nM | C[C@@H]1CN(c2ccc(-c3ccccc3F)c(F)c2)C(=O)c2c(N)ncnc2O1 [Example 54, (R)-4-Amino-6-(2,2′-difluorobiphenyl-4-yl)-8-methyl-7,8-dihydropyrimido[5,4-f][1,4]oxazepin-5(6H)-one] |
| 10 nM | C[C@@H]1CN(c2ccc(-c3ccccc3Cl)c(F)c2)C(=O)c2c(N)ncnc2O1 [Example 55, (R)-4-Amino-6-(2′-chloro-2-fluorobiphenyl-4-yl)-8-methyl-7,8-dihydropyrimido[5,4-f][1,4]oxazepin-5(6H)-one] |
| 10 nM | C[C@@H]1CN(c2ccc(-c3c(F)cccc3Cl)c(F)c2)C(=O)c2c(N)ncnc2O1 [Example 56, (8R)-4-amino-6-(2′-chloro-2,6′-difluorobiphenyl-4-yl)-8-methyl-7,8-dihydropyrimido[5,4-f][1,4]oxazepin-5(6H)-one] |
| 20 nM | C[C@@H]1CN(c2ccc(-c3c(F)cccc3F)c(F)c2)C(=O)c2c(N)ncnc2O1 [Example 57, (R)-4-amino-8-methyl-6-(2,2′,6′-trifluorobiphenyl-4-yl)-7,8-dihydropyrimido[5,4-f][1,4]oxazepin-5(6H)-one] |
| 20 nM | C[C@@H]1CN(c2ccc(-c3ccccc3Cl)c(C#N)c2)C(=O)c2c(N)ncnc2O1 [Example 59, (R)-4-(4-Amino-8-methyl-5-oxo-7,8-dihydropyrimido[5,4-f][1,4]oxazepin-6(5H)-yl)-2′-chlorobiphenyl-2-carbonitrile] |

Continued, compound first:

| Structure (SMILES) | IC50 |
| --- | --- |
| Nc1ncnc2c1C(=O)N(c1ccc(-c3cccc(F)c3F)cc1)CCO2 [Example 25, 4-Amino-6-(2′,3′-difluorobiphenyl-4-yl)-7,8-dihydropyrimido[5,4-f][1,4]oxazepin-5(6H)-one] | 320 nM |
| Nc1ncnc2c1C(=O)N(c1ccc(-c3cc(F)ccc3F)cc1)CCO2 [Example 26, 4-Amino-6-(2′,5′-difluorobiphenyl-4-yl)-7,8-dihydropyrimido[5,4-f][1,4]oxazepin-5(6H)-one] | 110 nM |
| Nc1ncnc2c1C(=O)N(c1ccc(-c3ccc(Cl)cc3F)cc1)CCO2 [Example 27, 4-Amino-6-(4′-chloro-2′-fluorobiphenyl-4-yl)-7,8-dihydropyrimido[5,4-f][1,4]oxazepin-5(6H)-one] | 40 nM |
| Nc1ncnc2c1C(=O)N(c1ccc(-c3cc(F)c(F)cc3F)cc1)CCO2 [Example 28, 4-Amino-6-(2′,4′,5′-trifluorobiphenyl-4-yl)-7,8-dihydropyrimido[5,4-f][1,4]oxazepin-5(6H)-one] | 130 nM |
| Nc1ncnc2c1C(=O)N(c1ccc(-c3ccc(F)cc3F)cc1)CCO2 [Example 29, 4-Amino-6-(2′,4′-difluorobiphenyl-4-yl)-7,8-dihydropyrimido[5,4-f][1,4]oxazepin-5(6H)-one] | 60 nM |
| Cc1nc(N)c2c(n1)OCCN(c1ccc(-c3ccccc3Cl)cc1)C2=O [Example 42, 4-Amino-6-(2′-chlorobiphenyl-4-yl)-2-methyl-7,8-dihydropyrimido[5,4-f][1,4]oxazepin-5(6H)-one] | 90 nM |

same assay, conditions: human DGAT1 expressed in sf9 insect cell membranes; usually mean of 2 measurements

| IC50 | Structure (SMILES) |
| --- | --- |
| 35 nM | Nc1ncnc2c1C(=O)N(c1ccc(-c3ccc(S(N)(=O)=O)cc3Cl)cc1)CCO2 [Example 4, 4′-(4-Amino-5-oxo-7,8-dihydropyrimido[5,4-f][1,4]oxazepin-6(5H)-yl)-2-chlorobiphenyl-4-sulfonamide] |
